Experimental findings from patent US20080262073A1, “Pyrrolic Derivatives with Histone Deacetylase Inhibitory Activity” (priority 2005, published 2008) are described below.

Usually melting point stands for the temperature, or range, at which the solid turns liquid.

Take `O=C(O)CCCCCNC(=O)c1[nH]c(-c2ccccc2)cc1-c1ccccc1` [Example 4, 6-(3,5-diphenyl-1H-pyrrole-2-carboxamide)hexanoic acid]: the melting point was 228 to 229 °C.

Turning to `O=C(O)CCCCCNC(=O)c1[nH]c(-c2ccccc2)c([N+](=O)[O-])c1-c1ccccc1` [Example 5, 6-(4-nitro-3,5-diphenyl-1H-pyrrole-2-carboxamide)hexanoic acid], the melting point lay within 153 to 154 °C.

On to `COc1ccc(-c2cc(-c3ccccc3)c(C(=O)NCCCCCC(=O)NO)[nH]2)cc1` [Example 6], for which the melting point was in the range of 157 to 158 °C.

For `COc1ccc(-c2[nH]c(C(=O)NCCCCCC(=O)NO)c(-c3ccccc3)c2[N+](=O)[O-])cc1` [Example 7], the melting point fell in the range of 126 to 127 °C.

For the molecule `COc1ccc(-c2cc(-c3ccccc3)[nH]c2C(=O)NCCCCCC(=O)NO)cc1` [Example 8], the melting point was found to be 142 °C.

`CNNC(=O)NCCCCNC(=O)c1[nH]c(-c2ccc(OC)cc2)c([N+](=O)[O-])c1-c1cccs1` [Example 11, 1-(4-(5-(4-methoxyphenyl)-4-nitro-3-(thiophene-2-yl)-1H-pyrrole-2-carboxamide)butyl)-3-(2-methylamine)urea] came in with a melting point of 185 to 187 °C.
